Data as given in patent US7691844B2, “Nonpeptide substituted spirobenzoazepines as vasopressin antagonists” (Ortho-McNeil Pharmaceutical, Inc., priority 2000, dated 2010).
Values belong to the compound of their own block, whether it stands above or below them.

Columns and labels:
V1a = V1a (Homo sapiens, UniProt P37288); experiment: In-vitro receptor binding assay (3H-arginine-8-vasopressin), V1a
Experimental: (§1) (A) In-Vitro Binding Assay […] The reaction plates are allowed to sit at room temperature for one hour. The samples are filtered through Unifilter GF/C plates (presoaked in 0.3 polyethyleneimine). The plates are washed 5 times with cold physiological saline containing 0.05% Tween 20. After drying, the bottom of the filter plates are sealed and 0.025 ml of Microscint-20 is added to each filter. The top of the plate is sealed, and the plate is counted. Non-specific binding is determined by the addition of 1.25 μM […]-vasopressin in those wells. % Inh. is calculated as follows: […]

human V2 receptor = human V2 receptor (Homo sapiens, UniProt P30518); experiment: In-vitro receptor binding assay (3H-arginine-8-vasopressin), V2
human V2 receptor, sequence (P30518 whole entry): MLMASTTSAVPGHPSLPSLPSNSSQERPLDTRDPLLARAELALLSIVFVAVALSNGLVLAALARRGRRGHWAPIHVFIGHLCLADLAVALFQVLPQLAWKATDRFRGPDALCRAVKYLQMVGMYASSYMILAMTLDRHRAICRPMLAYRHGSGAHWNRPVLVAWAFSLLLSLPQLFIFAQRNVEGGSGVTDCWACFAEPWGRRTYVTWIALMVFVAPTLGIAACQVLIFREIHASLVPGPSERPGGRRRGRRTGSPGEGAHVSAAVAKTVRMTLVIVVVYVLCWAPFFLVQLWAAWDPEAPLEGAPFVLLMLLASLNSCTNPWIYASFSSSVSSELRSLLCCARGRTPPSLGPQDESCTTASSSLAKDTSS
Experimental: as §1

[1] = @ 0.1 μM, read-out: Receptor Binding V1a (% Inh. @ concentration in μM)
[2] = @ 1 μM, read-out: Receptor Binding V2 (% Inh. @ concentration in μM)
[3] = read-out: Receptor Binding V2 (% Inh. @ concentration in μM)

V1a, sequence (P37288 whole entry): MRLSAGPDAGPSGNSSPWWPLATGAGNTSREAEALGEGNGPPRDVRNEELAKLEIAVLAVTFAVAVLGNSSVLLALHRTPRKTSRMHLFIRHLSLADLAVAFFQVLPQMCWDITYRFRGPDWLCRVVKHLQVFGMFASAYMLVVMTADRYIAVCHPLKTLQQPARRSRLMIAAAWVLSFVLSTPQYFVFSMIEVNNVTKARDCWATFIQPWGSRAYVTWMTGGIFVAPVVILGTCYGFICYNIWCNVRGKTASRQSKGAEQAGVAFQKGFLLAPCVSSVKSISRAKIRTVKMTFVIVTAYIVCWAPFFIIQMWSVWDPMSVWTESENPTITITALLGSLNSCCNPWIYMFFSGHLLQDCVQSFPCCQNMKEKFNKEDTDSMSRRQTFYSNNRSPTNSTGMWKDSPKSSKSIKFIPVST

Compound: O=C(Nc1ccc(C(=O)N2CCC3(C=CCCC3)Cc3ccccc32)c(Cl)c1)c1ccccc1-c1ccccc1 (stereo not drawn) [Compound 118]
inhibition at 0.1 µM (V1a; [1]): 40% | IC50 (human V2 receptor): 0.085 µM

Compound: Cc1ccc(-c2ccccc2C(=O)Nc2ccc(C(=O)N3CCC4(C=CCCC4)Cc4ccccc43)c(Cl)c2)cc1 (stereo not drawn) [Compound 117]
Receptor Binding V1a (% Inh. @ concentration in μM) (V1a; @ 0.1 μM): 30% @ 0.1 | IC50 (human V2 receptor): 0.1 µM

Compound: O=C(c1ccc(F)cc1)N1CCC2(C=CCCC2)Cc2ccccc21 (stereo not drawn) [Compound 44]
Receptor Binding V2 (% Inh. @ concentration in μM) (human V2 receptor; @ 10 μM): 42% @ 10

Compound: COC(=O)C1=CC2(CC1)CCN(C(=O)c1ccc(NC(=O)c3ccccc3F)cc1)c1ccccc1C2 (stereo not drawn) [Compound 133]
IC50 (V1a): 0.015 µM | inhibition at 0.1 µM (human V2 receptor; [3]): 23%

Compound: O=C(c1ccccc1F)N1CCC2(C=CCCC2)Cc2ccccc21 (stereo not drawn) [Compound 107]
IC50 (V1a): 0.06 µM | inhibition at 1 µM (human V2 receptor; [2]): 21%

Compound: O=C(Nc1ccc(C(=O)N2CCC3(C=CCCC3)Cc3ccccc32)cc1)c1ccccc1Cl (stereo not drawn) [Compound 96]
IC50 (V1a): 0.012 µM | IC50 (human V2 receptor): 0.18 µM

Compound: COc1ccc(C(=O)Nc2ccc(C(=O)N3CCC4(C=CCCC4)Cc4ccccc43)cc2)cc1OC (stereo not drawn) [Compound 97]
Receptor Binding V2 (% Inh. @ concentration in μM) (human V2 receptor; @ 1 μM): 2% @ 1

Compound: O=C(Nc1ccc(C(=O)N2CCC3(C=CCCC3)Cc3ccccc32)cc1)c1ccc(Cl)cc1Cl (stereo not drawn) [Compound 103]
IC50 (V1a): 0.016 µM | IC50 (human V2 receptor): 0.274 µM

Compound: Cc1ccccc1C(=O)Nc1ccc(C(=O)N2CCC3(C=CCCC3)Cc3ccccc32)c(Cl)c1 (stereo not drawn) [Compound 112]
IC50 (V1a): 0.062 µM | IC50 (human V2 receptor): 0.08 µM

Compound: O=C(c1cc(F)cc(F)c1)N1CCC2(C=CCCC2)Cc2ccccc21 (stereo not drawn) [Compound 47]
IC50 (V1a): 0.39 µM | Receptor Binding V2 (% Inh. @ concentration in μM) (human V2 receptor; @ 10 μM): 29% @ 10

Compound: CC(=O)Nc1ccc(C(=O)N2CCC3(C=CCCC3)Cc3ccccc32)cc1 (stereo not drawn) [Compound 57]
IC50 (V1a): 0.34 µM | inhibition at 1 µM (human V2 receptor; [2]): 4%

Compound: Cc1ccc(C(=O)N2CCC3(C=CCCC3)Cc3ccccc32)cc1 (stereo not drawn) [Compound 41]
IC50 (V1a): 0.32 µM | Receptor Binding V2 (% Inh. @ concentration in μM) (human V2 receptor; @ 10 μM): 0% @ 10

Compound: CC(C)Nc1ccc(C(=O)N2CCC3(C=CCCC3)Cc3ccccc32)cc1 (stereo not drawn) [Compound 79]
IC50 (V1a): 0.19 µM | inhibition at 1 µM (human V2 receptor; [2]): 19%

Compound: O=C(Nc1ccc(C(=O)N2CCC3(C=CCCC3)Cc3ccccc32)cc1)c1ccccc1F (single isomer, unassigned) [Compound 108]
IC50 (V1a): 0.024 µM | IC50 (human V2 receptor): 0.57 µM

Compound: N#Cc1ccc(C(=O)N2CCC3(CCCCC3)Cc3ccccc32)cc1 [Compound 24]
IC50 (V1a): 0.8 µM | inhibition at 10 µM (human V2 receptor; @ 10 μM, read-out: Receptor Binding V2 (% Inh. @ concentration in μM)): 26%

Compound: O=C(c1ccc(C(F)(F)F)cc1)N1CCC2(C=CCCC2)Cc2ccccc21 (stereo not drawn) [Compound 38]
IC50 (V1a): 1.6 µM | Receptor Binding V2 (% Inh. @ concentration in μM) (human V2 receptor; @ 10 μM): 35% @ 10

Compound: CN(C)c1ccc(C(=O)N2CCC3(C=CCCC3)Cc3cc(Cl)c(Cl)cc32)cc1 (stereo not drawn) [Compound 72]
IC50 (V1a): 0.04 µM | Receptor Binding V2 (% Inh. @ concentration in μM) (human V2 receptor; @ 1 μM): 16% @ 1

More lines, now with the values ahead:

inhibition at 1 µM (V1a; @ 1 μM, read-out: Receptor Binding V1a (% Inh. @ concentration in μM)): 27% | inhibition at 1 µM (human V2 receptor; [2]): 3%
Compound: CCN(C(=O)NCCCN(C)C)C(=O)C1=CC2(CC1)CCN(C(=O)c1ccc(N)c(OC)c1)c1ccccc1C2 (stereo not drawn) [Compound 188]

IC50 (V1a): 0.14 µM
Compound: CCCCOc1ccc(C(=O)N2CCC3(C=C(C(=O)OC)CC3)Cc3ccccc32)cc1 (stereo not drawn) [Compound 205]

inhibition at 0.1 µM (V1a; [1]): 35% | inhibition at 0.1 µM (human V2 receptor; [3]): 57%
Compound: Cc1ccc(F)cc1C(=O)Nc1ccc(C(=O)N2CCC3(C=C(C=O)CC3)Cc3ccccc32)c(Cl)c1 (stereo not drawn) [Compound 138]

IC50 (V1a): 0.006 µM | inhibition at 0.1 µM (human V2 receptor; [3]): 0%
Compound: COc1cc(C(=O)N2CC[C@]3(C=C(C(=O)NCCN(C)C)CC3)Cc3ccccc32)ccc1-n1ccc(CO)c1 [Compound 197]

inhibition at 0.1 µM (V1a; [1]): 50% | inhibition at 1 µM (human V2 receptor; [2]): 0%
Compound: CC(=O)N1CCC(Oc2ccc(C(=O)N3CCC4(C=CCCC4)Cc4ccccc43)cc2F)CC1 (stereo not drawn) [Compound 168, 4-(3-Fluoro-4-(N-acetylpiperidin-4-yloxy)benzoyl)-4-aza-[6,5]-spiro-[5,6]-benzododec-2′-ene]

IC50 (V1a): 0.088 µM | inhibition at 1 µM (human V2 receptor; [2]): 20%
Compound: O=C(c1ccc(OC2CCCC2)cc1)N1CCC2(C=CCCC2)Cc2ccccc21 (stereo not drawn) [Compound 180]

IC50 (V1a): 0.013 µM
Compound: CN(C)CCNC(=O)C1=CC2(CC1)CCN(C(=O)c1ccc(NC(=O)c3cc(F)ccc3F)cc1)c1ccccc1C2 (stereo not drawn) [Compound 220]

IC50 (V1a): 0.045 µM | inhibition at 1 µM (human V2 receptor; [2]): 13%
Compound: COc1cc(C(=O)N2CCC3(C=C(C(=O)NCCN(C)C)CC3)Cc3ccccc32)ccc1-n1ccc(C=O)c1 (stereo not drawn) [Compound 189, 4-[3-Methoxy-4-(pyrrol-1-yl-3-carboxaldehyde)benzoyl]-3′-[2-(N,N-dimethylamino)ethylcarboxamido]-4-aza-[6,4]-spiro-[5,6]-benzoundec-2′-ene]

inhibition at 0.1 µM (V1a; [1]): 60% | IC50 (human V2 receptor): 0.052 µM
Compound: Cc1ccc(F)cc1C(=O)Nc1ccc(C(=O)N2CCC3(C=C(C(=O)NCCN(C)C)CC3)Cc3ccccc32)c(Cl)c1 (stereo not drawn) [Compound 136]
